In paper PMC9992855, “Functional polyamine metabolic enzymes and pathways encoded by the virosphere” (Proceedings of the National Academy of Sciences of the …, 2023):

Tests used:
[1] = test system: T1, UCP01 AdoMetDC homolog (pyruvoyl-dependent ODC); assay: decarboxylase activity assay; format: biochemical, uncultured Myoviridae sp.; details: 26 °C
T1 construct: gene speD; 117 aa; recombinant, purified; pyruvoyl enzyme
Text: decarboxylase activity assay on UCP01 AdoMetDC homolog (pyruvoyl-dependent ODC)

[2] = test system: T2, Pelagiphage HTVC201P "AdoMetDC" (pyruvoyl-dependent ADC); assay: decarboxylase activity assay; format: biochemical, Pelagibacter phage HTVC201P; details: 27 °C
T2 construct: gene speD; 122 aa; recombinant, purified; class 1b AdoMetDC homolog, pyruvoyl enzyme
Text: decarboxylase activity assay on Pelagiphage HTVC201P "AdoMetDC" (pyruvoyl-dependent ADC)

KNV1 arginase homolog = test system: T3, KNV1 arginase homolog; assay: released urea detection; format: biochemical, Klosneuvirus KNV1
T3 construct: expressed in E. coli, purified

[3] = test system: T4, UCP03 AdoMetDC homolog (pyruvoyl-dependent ODC); details: 26 °C
T4 construct: gene speD
Text: decarboxylase activity assay on UCP03 AdoMetDC homolog (pyruvoyl-dependent ODC)

[4] = test system: T5, LBP AdoMetDC homolog (pyruvoyl-dependent ODC); details: 26 °C
T5 construct: gene speD
Text: decarboxylase activity assay on LBP AdoMetDC homolog (pyruvoyl-dependent ODC)

[5] = test system: Yellowstone Lake phycodnavirus 2 ODC; details: 26 °C
Text: decarboxylase activity assay on Yellowstone Lake phycodnavirus 2 ODC

[6] = test system: T6, UCP02 AdoMetDC homolog (pyruvoyl-dependent ODC); details: 26 °C
T6 construct: gene speD
Text: decarboxylase activity assay on UCP02 AdoMetDC homolog (pyruvoyl-dependent ODC)

Klosneuvirus KNV1 ODC = details: 26 °C
[7] = test system: T7, UCP04 AdoMetDC homolog (pyruvoyl-dependent ODC); details: 26 °C
T7 construct: gene speD
Text: decarboxylase activity assay on UCP04 AdoMetDC homolog (pyruvoyl-dependent ODC)

Klosneuvirus KNV1 APAH = test system: T8, Klosneuvirus KNV1 APAH; assay: colorimetric acetate release; format: biochemical; details: 26 °C
T8 construct: 345 aa; expressed in E. coli, purified
Text: colorimetric acetate release on Klosneuvirus KNV1 APAH

Hyperionvirus sp. APAH = test system: T9, Hyperionvirus sp. APAH; assay: colorimetric acetate release; format: biochemical; details: 26 °C
T9 construct: 351 aa; expressed in E. coli, purified
Text: colorimetric acetate release on Hyperionvirus sp. APAH

SMILES: N=C(N)NCCC[C@H](N)C(=O)O [L-arginine]
- Km [1]: 2200 ± 290 µM
- Km [2]: 870 ± 110 µM
- Km (KNV1 arginase homolog): 1300 ± 160 µM

SMILES: NCCC[C@H](N)C(=O)O [L-ornithine]
- Km [1]: 5500 ± 290 µM
- Km [3]: 620 ± 10 µM
- Km [4]: 3800 ± 430 µM
- Km [5]: 540 ± 200 µM
- Km [6]: 2400 ± 190 µM
- Km (Klosneuvirus KNV1 ODC): 430 ± 20 µM
- Km [7]: 440 ± 40 µM

SMILES: CC(=O)NCCCNCCCCN [N^1-acetylspermidine]
- Km (Klosneuvirus KNV1 APAH): 240 ± 20 µM
- Km (Hyperionvirus sp. APAH): 1600 ± 160 µM

SMILES: CC(=O)NCCCCNCCCN [N^8-acetylspermidine]
- Km (Klosneuvirus KNV1 APAH): 450 ± 10 µM
- Km (Hyperionvirus sp. APAH): 5000 ± 730 µM
